This assay deals with T1, HP0826 (β1,4-galactosyltransferase) (Helicobacter pylori, UniProt O25500).
T1 construct: gene HP_0826; recombinantly expressed per earlier literature (Fang et al., 2018); used as cell lysate in synthesis
Briefly: acceptor specificity test. It is filed as cell-based. To be noted: UDP-Gal donor; enzyme preparation not given.

One molecule from paper PMC9194828, “Chemoenzymatic Synthesis of Asymmetrically Branched Human Milk Oligosaccharide Lacto-N-Hexaose” (Frontiers in Chemistry, 2022) can be followed below.

SMILES strings stand for the structures.

T1 sequence (O25500 entry or part of it): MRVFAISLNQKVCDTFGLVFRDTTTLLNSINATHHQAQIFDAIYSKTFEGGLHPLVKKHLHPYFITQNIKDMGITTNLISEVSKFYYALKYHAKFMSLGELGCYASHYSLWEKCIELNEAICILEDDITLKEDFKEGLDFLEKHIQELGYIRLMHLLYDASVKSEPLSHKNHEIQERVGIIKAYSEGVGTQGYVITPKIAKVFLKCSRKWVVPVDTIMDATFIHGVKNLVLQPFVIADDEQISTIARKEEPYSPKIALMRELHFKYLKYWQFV

For the molecule `CC(=O)N[C@H]1[C@H](OCCCCCCN=[N+]=[N-])O[C@H](CO)[C@@H](O)[C@@H]1O` [GlcNAc-C6N3], the acceptor specificity test result is recorded as “HP0826 exhibited excellent enzymatic activity on GlcNAc-C6N3”.
